{
  "source": "ChEMBL document CHEMBL5325488",
  "about": "“Discovery of SMD-3040 as a Potent and Selective SMARCA2 PROTAC Degrader with Strong in vivo Antitumor Activity” (J Med Chem, 2023)",
  "key": {"[1]": {"system": "NCI-H838", "assay": "Antiproliferative activity against SMARCA4-deficient human NCI-H838 cells assessed as cell growth inhibition measured after 7 days by WST-8 assay", "assay_type": "functional", "details": "NCI-H838, 168 h, time 7 day"}, "[2]": {"target": "T1, von Hippel-Lindau disease tumor suppressor/SWI/SNF-related matrix-associated actin-dependent regulator of chromatin subfamily A member 2 (Homo sapiens, UniProt P51531+P40337)", "assay": "In vivo PROTAC activity at VHL/SMARCA2 in SCID mouse xenografted with human NCI-H838 cells assessed as remaining activity in tumor at 50 mg/kg, iv administered as single dose measured after 24 hrs by Western blotting analysis (reference value: 100 +/- 7% )", "assay_type": "functional, organism-based"}, "[3]": {"system": "NCI-H1299", "assay": "Antiproliferative activity against SMARCA4-deficient human NCI-H1299 cells assessed as cell growth inhibition measured after 7 days by WST-8 assay", "assay_type": "functional", "details": "NCI-H1299, 168 h, time 7 day"}, "[4]": {"target": "T1, von Hippel-Lindau disease tumor suppressor/SWI/SNF-related matrix-associated actin-dependent regulator of chromatin subfamily A member 2", "assay": "In vivo PROTAC activity at VHL/SMARCA2 in SCID mouse xenografted with human NCI-H838 cells assessed as reduction of SMARCA2 level in tumor at 50 mg/kg, iv administered as single dose measured after 3 hrs by Western blotting analysis", "assay_type": "functional, organism-based", "parameters": "scale not given: the % may be the effect or the level left"}, "[5]": {"target": "T1, von Hippel-Lindau disease tumor suppressor/SWI/SNF-related matrix-associated actin-dependent regulator of chromatin subfamily A member 2", "assay": "In vivo PROTAC activity at VHL/SMARCA2 in SCID mouse xenografted with human MV4-11 cells assessed as remaining activity in tumor at 50 mg/kg, iv administered as single dose measured after 96 hrs by Western blotting analysis (reference value: 100 +/- 15 % )", "assay_type": "ADME, organism-based"}, "[6]": {"target": "T1, von Hippel-Lindau disease tumor suppressor/SWI/SNF-related matrix-associated actin-dependent regulator of chromatin subfamily A member 2", "assay": "PROTAC activity at VHL/wild-type SMARCA2 in human NCI-H838 cells assessed as induction of SMARCA2 degradation at 0.001 to 1000 nM incubated for 24 hrs by Western blotting analysis relative to control", "assay_type": "cell-based", "details": "dose 0.001-1000 nM"}, "[7]": {"target": "T1, von Hippel-Lindau disease tumor suppressor/SWI/SNF-related matrix-associated actin-dependent regulator of chromatin subfamily A member 2", "assay": "In vivo PROTAC activity at VHL/SMARCA2 in SCID mouse xenografted with human MV4-11 cells assessed as remaining activity in tumor at 50 mg/kg, iv administered as single dose measured after 72 hrs by Western blotting analysis (reference value: 100 +/- 15 % )", "assay_type": "ADME, organism-based"}, "[8]": {"target": "T1, von Hippel-Lindau disease tumor suppressor/SWI/SNF-related matrix-associated actin-dependent regulator of chromatin subfamily A member 2", "assay": "In vivo PROTAC activity at VHL/SMARCA2 in SCID mouse xenografted with human MV4-11 cells assessed as reduction of SMARCA2 level in tumor at 50 mg/kg, iv administered as single dose measured after 6 hrs by Western blotting analysis", "assay_type": "ADME, organism-based", "parameters": "scale not given: the % may be the effect or the level left"}, "[9]": {"system": "SK-MEL-5", "assay": "Antiproliferative activity against SMARCA4-deficient human SK-MEL-5 cells assessed as cell growth inhibition measured after 7 days by WST-8 assay", "assay_type": "functional", "details": "SK-MEL-5, 168 h, time 7 day"}, "[10]": {"target": "T2, von Hippel-Lindau disease tumor suppressor/SWI/SNF-related matrix-associated actin-dependent regulator of chromatin subfamily A member 4 (Homo sapiens, UniProt P51532+P40337)", "assay": "In vivo PROTAC activity at VHL/SMARCA4 in SCID mouse xenografted with human MV4-11 cells assessed as remaining activity in tumor at 50 mg/kg, iv administered as single dose measured after 72 hrs by Western blotting analysis (reference value: 100 +/- 15 % )", "assay_type": "ADME, organism-based"}, "[11]": {"target": "T1, von Hippel-Lindau disease tumor suppressor/SWI/SNF-related matrix-associated actin-dependent regulator of chromatin subfamily A member 2", "assay": "PROTAC activity at VHL/C-terminal HiBiT fused SMARCA2 in human HeLa cells assessed as induction of SMARCA2 degradation by measuring maximal efficacy at 0.0001 to 1 uM incubated for 48 hrs by Nano-Glo HiBiT analysis relative to control", "assay_type": "cell-based", "details": "dose 0.0001-1 µM"}, "[12]": {"assay": "Drug concentration in SCID mouse tumor xenografted with human MV4-11 cells at 50 mg/kg, iv measured after 96 hrs by LC-MS/MS method", "assay_type": "ADME, organism-based, Neoplasm", "details": "read-out: Ct"}, "[13]": {"target": "T2, von Hippel-Lindau disease tumor suppressor/SWI/SNF-related matrix-associated actin-dependent regulator of chromatin subfamily A member 4", "assay": "PROTAC activity at VHL/C-terminal HiBiT fused SMARCA4 in human HeLa cells assessed as induction of SMARCA4 degradation by measuring maximal efficacy at 0.001 to 10 uM incubated for 48 hrs by Nano-Glo HiBiT analysis relative to control", "assay_type": "cell-based", "details": "dose 0.001-10 µM"}, "[14]": {"system": "NCI-H1299", "assay": "Antiproliferative activity against SMARCA4-deficient human NCI-H1299 cells assessed as cell growth inhibition by measuring maximal efficacy measured after 7 days by WST-8 assay relative to control", "assay_type": "functional", "details": "time 7 day"}, "[15]": {"target": "T1, von Hippel-Lindau disease tumor suppressor/SWI/SNF-related matrix-associated actin-dependent regulator of chromatin subfamily A member 2", "assay": "In vivo PROTAC activity at VHL/SMARCA2 in SCID mouse xenografted with human MV4-11 cells assessed as remaining activity in tumor at 50 mg/kg, iv administered as single dose measured after 24 hrs by Western blotting analysis (reference value: 100 +/- 15 % )", "assay_type": "ADME, organism-based"}, "[16]": {"system": "NCI-H1975", "assay": "Antiproliferative activity against human NCI-H1975 cells expressing wild-type SMARCA2 assessed as cell growth inhibition by measuring maximal efficacy measured after 7 days by WST-8 assay relative to control", "assay_type": "functional", "details": "time 7 day"}, "[17]": {"target": "T2, von Hippel-Lindau disease tumor suppressor/SWI/SNF-related matrix-associated actin-dependent regulator of chromatin subfamily A member 4", "assay": "PROTAC activity at VHL/C-terminal HiBiT fused SMARCA4 in human HeLa cells assessed as induction of SMARCA4 degradation by measuring maximal efficacy at 0.001 to 10 uM incubated for 3 hrs by Nano-Glo HiBiT analysis relative to control", "assay_type": "cell-based", "details": "dose 0.001-10 µM"}, "[18]": {"target": "T2, von Hippel-Lindau disease tumor suppressor/SWI/SNF-related matrix-associated actin-dependent regulator of chromatin subfamily A member 4", "assay": "In vivo PROTAC activity at VHL/SMARCA4 in SCID mouse xenografted with human MV4-11 cells assessed as reduction of SMARCA4 level in tumor at 50 mg/kg, iv administered as single dose measured after 6 hrs by Western blotting analysis", "assay_type": "ADME, organism-based", "parameters": "scale not given: the % may be the effect or the level left"}, "[19]": {"system": "NCI-H838", "assay": "Antiproliferative activity against SMARCA4-deficient human NCI-H838 cells assessed as cell growth inhibition by measuring maximal efficacy measured after 7 days by WST-8 assay relative to control", "assay_type": "functional", "details": "time 7 day"}, "[20]": {"target": "T1, von Hippel-Lindau disease tumor suppressor/SWI/SNF-related matrix-associated actin-dependent regulator of chromatin subfamily A member 2", "assay": "PROTAC activity at VHL/wild-type SMARCA2 in human SK-MEL-5 cells assessed as induction of SMARCA2 degradation at 0.001 to 1000 nM incubated for 24 hrs by Western blotting analysis relative to control", "assay_type": "cell-based", "details": "dose 0.001-1000 nM"}, "[21]": {"system": "NCI-H1944", "assay": "Antiproliferative activity against SMARCA4-deficient human NCI-H1944 cells assessed as cell growth inhibition measured after 7 days by WST-8 assay", "assay_type": "functional", "details": "NCI-H1944, 168 h, time 7 day"}, "[22]": {"target": "T1, von Hippel-Lindau disease tumor suppressor/SWI/SNF-related matrix-associated actin-dependent regulator of chromatin subfamily A member 2", "assay": "In vivo PROTAC activity at VHL/SMARCA2 in SCID mouse xenografted with human MV4-11 cells assessed as reduction of SMARCA2 level in tumor at 50 mg/kg, iv administered as single dose measured after 24 hrs by Western blotting analysis", "assay_type": "ADME, organism-based", "parameters": "scale not given: the % may be the effect or the level left"}, "[23]": {"target": "T1, von Hippel-Lindau disease tumor suppressor/SWI/SNF-related matrix-associated actin-dependent regulator of chromatin subfamily A member 2", "assay": "In vivo PROTAC activity at VHL/SMARCA2 in SCID mouse xenografted with human MV4-11 cells assessed as reduction of SMARCA2 level in tumor at 50 mg/kg, iv administered as single dose measured after 2 hrs by Western blotting analysis", "assay_type": "ADME, organism-based", "parameters": "scale not given: the % may be the effect or the level left"}, "[24]": {"target": "T2, von Hippel-Lindau disease tumor suppressor/SWI/SNF-related matrix-associated actin-dependent regulator of chromatin subfamily A member 4", "assay": "PROTAC activity at VHL/C-terminal HiBiT fused SMARCA4 in human HeLa cells assessed as induction of SMARCA4 degradation by measuring maximal efficacy at 0.001 to 10 uM incubated for 24 hrs by Nano-Glo HiBiT analysis relative to control", "assay_type": "cell-based", "details": "dose 0.001-10 µM"}, "[25]": {"target": "T1, von Hippel-Lindau disease tumor suppressor/SWI/SNF-related matrix-associated actin-dependent regulator of chromatin subfamily A member 2", "assay": "PROTAC activity at VHL/wild-type SMARCA2 in human SK-MEL-28 cells assessed as induction of SMARCA2 degradation incubated for 24 hrs by Western blotting analysis", "assay_type": "cell-based"}},
  "data": [
    {"smiles": "Cc1ncsc1-c1ccc([C@H](C)NC(=O)[C@@H]2C[C@@H](O)CN2C(=O)[C@@H](NC(=O)[C@H]2CC[C@H](CN3CC4(CCC(n5cc(-c6cc(-c7ccccc7O)nnc6N)cn5)CC4)C3)CC2)C(C)(C)C)cc1", "values": [
      {"measurement": "GI50", "setting": "[1]", "value": 119, "unit": "nM"},
      {"measurement": "Activity", "setting": "[2]", "value": 9, "unit": "%"},
      {"measurement": "GI50", "setting": "[3]", "value": "> 10000", "unit": "nM"},
      {"measurement": "Activity", "setting": "[4]", "value": 70, "unit": "%"},
      {"measurement": "Activity", "setting": "[5]", "value": 26, "unit": "%"},
      {"measurement": "Emax", "setting": "[6]", "value": 90, "unit": "%"},
      {"measurement": "Activity", "setting": "[7]", "value": 44, "unit": "%"},
      {"measurement": "Activity", "setting": "[8]", "value": 70, "unit": "%"},
      {"measurement": "GI50", "setting": "[9]", "value": 15, "unit": "nM"},
      {"measurement": "Activity", "setting": "[10]", "value": 91, "unit": "%"},
      {"measurement": "Emax", "setting": "[11]", "value": 94, "unit": "%"},
      {"measurement": "concentration at 96 h", "setting": "[12]", "value": 560, "unit": "ng/g"},
      {"measurement": "Emax", "setting": "[13]", "value": 68, "unit": "%"},
      {"measurement": "Imax", "setting": "[14]", "value": 41, "unit": "%"},
      {"measurement": "Activity", "setting": "[15]", "value": 14, "unit": "%"},
      {"measurement": "Imax", "setting": "[16]", "value": 47, "unit": "%"},
      {"measurement": "Emax", "setting": "[17]", "value": 46, "unit": "%"},
      {"measurement": "Activity", "setting": "[18]", "value": 17, "unit": "%"},
      {"measurement": "Imax", "setting": "[19]", "value": 83, "unit": "%"},
      {"measurement": "Emax", "setting": "[20]", "value": 94, "unit": "%"},
      {"measurement": "GI50", "setting": "[21]", "value": 30, "unit": "nM"},
      {"measurement": "Activity", "setting": "[22]", "value": 86, "unit": "%"},
      {"measurement": "Activity", "setting": "[23]", "value": 78, "unit": "%"},
      {"measurement": "Emax", "setting": "[24]", "value": 57, "unit": "%"},
      {"measurement": "DC50", "setting": "[25]", "value": 35, "unit": "nM"}
    ]}
  ]
}
